Laboratory results reported in patent EP0457908A1, “HYDROCHLORIDE 2,3,3a,4,5,6-HEXAHYDRO-8-CYCLOHEXYL-1H-PYRAZINO (3,2,1-j,k)CARBAZOL, METHOD OF OBTAINING IT AND A PHARMACEUTICAL PREPARATION OF ANTIDEPRESSIVE ACTION BASED ON IT” (priority 1989, dated 1991).

Columns and labels:
monoaminoxidase = assay: Monoaminoxidase activity in brain and liver homogenates after oral dosing; format: in vivo, male white rats
Protocol: The effect of the compound according to the present invention on the activity of monoaminoxidase was studied in special biochemical investigations.
The experiments were conducted in vivo on male white rats with a mass of 180-200 g. The compound in the doses of 5, 10, 25 and 50 mg/kg was administered orally. An equal volume of a […] of NaCl was administered to control animals. 1.5 hour after administration of the drug the animals were killed. […] The activity of monoaminoxidase was determined in 50% homogenates of the liver and brains of rate prepared on the basis of a 0.1 M phosphate buffer (pH = 7.4) containing 2% of a detergent - Trytol X-100. The substrates were used in concentrations of serotonin 10 µmol, tyramine 6 µmol per sample. The activity of monoaminoxidase was evaluated by liberation of ammonia during incubation of the samples for 50 minutes at the temperature of 37 °C in an oxygen atmosphere.
Protein in homogenates of the rat liver and brain was determined following the Peterson procedure (1977).

white rats = assay: Stereotypy induced by d,l-amphetamine; format: in vivo; conditions: distilled water = 100
Protocol: To evaluate the influence on stereotypy, the experiments were carried out on white rats of both sexes with a mass of 100-150 g. […] Stereotypy was assessed in points of from to 3 (after Janssen et al., 1967).

mice, rats and rabbits = assay: Chronical toxicity, daily administration for 6 months; format: in vivo; conditions: daily for 6 months
Source text: The acute and chronical toxicity of the compound according to the present invention was studied on mice, rats and rabbits.
Upon a daily administration of the compound according to the present invention for the period of 6 months no functional disturbances on the part of the inner organs of the animals were observed.

white mice [1] = assay: Reserpine-induced blepharoptosis; format: in vivo; conditions: acute and chronical experiments
Protocol: The compound according to the present invention was tested for the ability to decrease depriming effects of reserpin (blepharoptosis, hypothermia and the like).
Tests were carried out on white mice of both sexes with a mass of 16-18 g.
The compound according to the present invention was orally administered in a single dose and repeatedly during 18 days.
The compound according to the present invention was administered in the single doses of 1, 2.5 and 5 mg/kg; repeatedly - in the doses of 0.5, 1.0, 2.5 and 5 mg/kg. The single-time administration and the last administration of the 18 days' course were effected 60 minutes prior to the intraperitoneal administration of reserpine (2.5 mg/kg). For a comparative assessment in these and other experiments pyrazidol and imipramine were also administered.

white mice [2] = assay: Enhancement of the effect of 5-hydroxytryptophane (head shaking); format: in vivo
Protocol: The compound according to the present invention was tasted for the exciting effect of 5-hydroxytryptophane (head shaking).
The compound according to the present invention in the doses of 1.0, 2.5, 5.0 and 10 mg/kg was administered orally 60 minutes prior to an intraperitoneal administration of 5-hydroxytryptophane (50 mg/kg).

rabbits = assay: Bioelectrical activity of the brain (electroencephalogram), rabbits; format: in vivo
Source text: (§1) The study of the effect on the bioelectrical activity of the brain was effected in acute experiments using 8 consious cats immobilized with diplacin with a mass of 2.5-3.4 kg under conditions of a controlled breathing and 25 rabbits with a mass of 2.6-3.1 kg with chronically implanted electrodes. Recorded on an electroencephalograph was an electroencephalogram of the sensomotor, parietal and visual regions of the cerebral cortex in cats, plus that of the reticular formation of the midbrain, dorsal hippocamp and amygdala in rabbits.

[3] = system: normotensive female rats of the Vistar line; assay: Influence on the pressor effect of tyramine
Protocol: The experiments were conducted on conscious normotensive female rats of the Vistar line with a mass of 210-250 g placed under conditions of a free behaviour.

[4] = system: normotensive rats of the Vistar line; assay: Effect on arterial pressure and heart beat rate; format: in vivo
Protocol: The compound according to the present invention was also tested for its effect on the cardiovascular system.

cats = assay: Bioelectrical activity of the brain (electroencephalogram), cats; format: in vivo
Source text: as §1

[5] = Central and peripheral anticholinergic effect (oxotremorine, arecoline, galantamine); format: in vivo; conditions: 10 and 25 mg/kg orally and 1.0, 2.0 and 5.0 mg/kg intravenously
Protocol: The compound according to the present invention was also tested for its central and peripheral anticholinergic effect.

male white mice = assay: Hyperlocomotion induced by d,l-amphetamine; format: in vivo; conditions: 10-20 minutes after d,l-amphetamine 2.5 mg/kg intraperitoneally, distilled water 1,924.5±177.6
Protocol: The influence on hyperlocomotion induced by d,l-amphetamine was studied in experiments on male white mice with a mass of 20-22 g.
The locomotive activity of the mice was recorded 10-20 minutes after administration of d,l-amphetamine for 10 minutes.

mice and rats = assay: Carcinogenic properties, chronic experiment; format: in vivo
[6] = 5 mg/kg oral, 1.5 hour after administration
[7] = 10 mg/kg oral, 1.5 hour after administration
[8] = 25 mg/kg oral, 1.5 hour after administration (Table 5)
[9] = 25 mg/kg orally, time 1.5 hours (Table 6)
[10] = 25 mg/kg orally, time 6.0 hours
[11] = 25 mg/kg orally, time 48.0 hours
[12] = 50 mg/kg oral, 1.5 hour after administration

In the case of “2,3,3a,4,5,6-hexahydro-8-cyclohexyl-1H-pyrazino-(3,2,1-j,k)-carbazole hydrochloride [Compound of the present invention]”, the “Inhibition of deamination, % (M±m), Brain, Tyramine” value (monoaminoxidase; [6]) was 17±4.2%, the “Inhibition of deamination, % (M±m), Liver, Tyramine” value (monoaminoxidase; [6]) was 0% and the “Inhibition of deamination, % (M±m), Brain, Tyramine” value (monoaminoxidase; [7]) was 16.6±3.4%. For the same substance, the “Inhibition of deamination, % (M±m), Liver, Tyramine” value (monoaminoxidase; [7]) was 0%, the “Inhibition of deamination, % (M±m), Brain, Tyramine” value (monoaminoxidase; [8]) was 40±3.0% and the “Inhibition of deamination, % (M±m), Liver, Tyramine” value (monoaminoxidase; [8]) was 0%. The “time after which the activity of monoaminoxidase was fully restored” value (monoaminoxidase; 25 mg/kg orally) was 48 h, the “Inhibition of deamination, % (M±m), Brain, Tyramine” value (monoaminoxidase; [9]) was 40.0±3.0% and the “Inhibition of deamination, % (M±m), Liver, Tyramine” value (monoaminoxidase; [9]) was 0%. The “Inhibition of deamination, % (M±m), Brain, Tyramine” value (monoaminoxidase; [10]) was 36.0±9.3%, the “Inhibition of deamination, % (M±m), Liver, Tyramine” value (monoaminoxidase; [10]) was 0% and the “Inhibition of deamination, % (M±m), Brain, Tyramine” value (monoaminoxidase; [11]) was 2.5±1.1%. For the same substance, the “Inhibition of deamination, % (M±m), Liver, Tyramine” value (monoaminoxidase; [11]) was 0%, the “Inhibition of deamination, % (M±m), Brain, Tyramine” value (monoaminoxidase; [12]) was 43±6.6% and the “Inhibition of deamination, % (M±m), Liver, Tyramine” value (monoaminoxidase; [12]) was 0%. For the same substance, the “character of the inhibiting effect on the activity of monoaminoxidase” value (monoaminoxidase; rat, in vivo) was “reversible selective inhibitor of monoaminoxidase of the A type”, the “Stereotypy (tolal, for 4 measurements for 4 hours after hypodermal administration of d,l-amphetamine), %” value (“Stereotypy … %” for short) (white rats; oral dose 2.5 mg/kg) was 145% and the “Stereotypy … %” value (white rats; oral dose 5.0 mg/kg) was 170%. The “Stereotypy … %” value (white rats; oral dose 10.0 mg/kg) was 225%, the pathomorphological study (mice, rats and rabbits; 100 mg/kg) was “non-specific pathological changes in parenchymatous organs which were of a reversible character” and the pathomorphological study (mice, rats and rabbits; 10 and 50 mg/kg) was “no pathological changes”. The “anti-reserpine effect, superior to pyrazidol” value (white mice [1]) was “more than 10 times”, the “more active than pyrazidol in enhancing the convulsive activity of 5-hydroxytryptophane” value (white mice [2]; mice, ratio of ED₅₀) was “about 8 times” and the “ED₅₀, the dose at which head shaking were noticed in 50% of the animals” value (white mice [2]; orally, 60 minutes prior to 5-hydroxytryptophane 50 mg/kg intraperitoneally, read 25 minutes after) was 2.5 (2.1-3.0) mg/kg. For the same substance, the “amplitude of sinusoidal regular waves (teta-activity)” value (rabbits; 2 mg/kg, rabbits, hippocampus) was 150-200 µV, the “frequency of sinusoidal regular waves (teta-activity)” value (rabbits; 2 mg/kg, rabbits, hippocampus) was 4-6 oscillations per second and the “frequency of regular low-amplitude rhythms” value (rabbits; 2 mg/kg, rabbits, visual, parietal regions and reticular formation of the midbrain) was 5-7 oscillations per second. The “time after administration at which the variations in the electroencephalogram appeared” value (rabbits; 2 mg/kg, species not given) was 75-90 minutes, the “time after administration at which the effect of activation was recorded” value (rabbits; 5 mg/kg, species not given) was 45 to 60 min and the “enhanced effect of tyramine” value ([3]; 5 mg/kg orally for 5 days) was “no enhanced effect of tyramine was observed”. The “time after administration at which the enhanced effect of tyramine was noticed” value ([3]; 25 mg/kg orally) was 6 to 18 h, the “enhanced the pressor effect of tyramine” value ([3]; 25 mg/kg orally, tyramine 20 mg/kg orally) was 2 times and the heart beat rate ([4]; 10 mg/kg oral daily for 5 days) was “did not change the heart beat rate”. For the same substance, the “effect on the arterial pressure and heart beat rate” value ([4]; 1-100 mg/kg orally, free behaviour) was “no essential effect”, the “frequency of the rhythm of oscillations of biopotentials” value (cats; 2 mg/kg, cats, all recorded regions of the brain cortex, control 8-10 per second) was 20-25 per second and the “amplitudes of oscillations of biopotentials” value (cats; 2 mg/kg, cats, all recorded regions of the brain cortex, control 90-120 µV) was 25-40 µV. For the same substance, the “changes in the bioelectric activity in the cortex and subcortical brain structures” value (cats; 0.5 and 1 mg/kg, intravenously and intraperitoneally, cats and rabbits not distinguished) was “did not bring about any changes”, the “central and peripheral anticholinergic effect” value [5] was “absence of the anticholinergic effect” and the “Average value of locomotor activity of a group of 5 mice for 10 minutes” value (shortened to “Average value”) (male white mice; 1.0 mg/kg oral) was 3,482.6±445.5. For the same substance, the “Average value” value (male white mice; 2.5 mg/kg oral) was 3,315.5±462.6, the “Average value” value (male white mice; 5.0 mg/kg oral) was 4,885.0±537.2 and the carcinogenic properties (mice and rats) was “did not reveal carcinogenic properties”.
